Several values for one entry are separate records, joined by “and”; a condition that tells them apart may be missing. Identical values can stand only once. Toxic doses and inconclusive results are not listed. Rule as the data show it: active = T/C of 150% or more; inactive = T/C below 125%.
Test system: L1210 leukemia ip in BDF1 mice, survival T/C
Test: NCI In Vivo Anticancer Drug Screen. Data for tumor model L1210 Leukemia (intraperitoneal) in B6D2F1 (BDF1) mice
Conditions: endpoint: mean survival time, higher = longer survival
Summary of the method: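 Ratio derived from survival: compound-dosed mice over vehicle-dosed mice, all bearing a transplantable tumor.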

[1] = dose: 200.0 mg/kg/injection, schedule: Q01DX009 (ip), vehicle: carboxymethylcellulose (CMC)
[2] = dose: 100.0 mg/kg/injection, schedule: Q01DX001 (ip), vehicle: carboxymethylcellulose (CMC)
[3] = dose: 200.0 mg/kg/injection, schedule: Q01DX001 (ip), vehicle: carboxymethylcellulose (CMC)
[4] = dose: 400.0 mg/kg/injection, schedule: Q01DX001 (ip), vehicle: carboxymethylcellulose (CMC)
[5] = dose: 100.0 mg/kg/injection, schedule: Q01DX009 (ip), vehicle: saline
[6] = dose: 100.0 mg/kg/injection, schedule: Q04DX003 (ip), vehicle: saline
[7] = dose: 200.0 mg/kg/injection, schedule: Q01DX009 (ip), vehicle: saline
[8] = dose: 200.0 mg/kg/injection, schedule: Q04DX003 (ip), vehicle: saline
[9] = dose: 400.0 mg/kg/injection, schedule: Q04DX003 (ip), vehicle: saline
[10] = dose: 100.0 mg/kg/injection, schedule: Q01DX009 (ip), vehicle: Klucel (hydroxypropylcellulose) (HPC)
[11] = dose: 100.0 mg/kg/injection, schedule: Q04DX003 (ip), vehicle: Klucel (hydroxypropylcellulose) (HPC)
[12] = dose: 200.0 mg/kg/injection, schedule: Q01DX009 (ip), vehicle: Klucel (hydroxypropylcellulose) (HPC)
[13] = dose: 200.0 mg/kg/injection, schedule: Q04DX003 (ip), vehicle: Klucel (hydroxypropylcellulose) (HPC)
[14] = dose: 400.0 mg/kg/injection, schedule: Q01DX009 (ip), vehicle: Klucel (hydroxypropylcellulose) (HPC)
[15] = dose: 400.0 mg/kg/injection, schedule: Q04DX003 (ip), vehicle: Klucel (hydroxypropylcellulose) (HPC)
[16] = dose: 100.0 mg/kg/injection, schedule: Q01DX009 (ip), vehicle: saline with Tween-80
[17] = dose: 200.0 mg/kg/injection, schedule: Q01DX009 (ip), vehicle: saline with Tween-80
[18] = dose: 400.0 mg/kg/injection, schedule: Q01DX009 (ip), vehicle: saline with Tween-80

Measured: T/C

C=C(C)C1C/C(=N\O)C(C)/C(=N/O)C1 (stereo not given)
inactive: dose: 100.0 mg/kg/injection, schedule: Q04DX002 (ip), vehicle: saline with Tween-80 100 % of control | dose: 200.0 mg/kg/injection, schedule: Q04DX002 (ip), vehicle: saline with Tween-80 96 % of control | dose: 400.0 mg/kg/injection, schedule: Q04DX002 (ip), vehicle: saline with Tween-80 93 % of control

Cc1cc(C)c(NC(=O)N(CCCl)N=O)cc1C
inactive: dose: 1.0 mg/kg/injection, schedule: Q01DX009 (ip), vehicle: carboxymethylcellulose (CMC) 104 % of control | dose: 2.0 mg/kg/injection, schedule: Q01DX009 (ip), vehicle: carboxymethylcellulose (CMC) 109 % of control | dose: 4.0 mg/kg/injection, schedule: Q01DX009 (ip), vehicle: carboxymethylcellulose (CMC) 107 % of control | dose: 50.0 mg/kg/injection, schedule: Q01DX001 (ip), vehicle: other 97 % of control | dose: 100.0 mg/kg/injection, schedule: Q01DX001 (ip), vehicle: other 106 % of control | dose: 200.0 mg/kg/injection, schedule: Q01DX001 (ip), vehicle: other 100 % of control
active: dose: 88.0 mg/kg/injection, schedule: Q01DX009 (ip), vehicle: carboxymethylcellulose (CMC) 155 % of control | dose: 133.0 mg/kg/injection, schedule: Q01DX009 (ip), vehicle: carboxymethylcellulose (CMC) 180 % of control | [1] 166 % of control

O=C1c2ccccc2-c2cc(F)cc(F)c21
inactive: dose: 50.0 mg/kg/injection, schedule: Q01DX001 (ip), vehicle: carboxymethylcellulose (CMC) 104 % of control | [2] 102 % of control | [3] 102 % of control | [4] 102 % of control

COC1=C(Nc2cccc(C)c2C)C(=O)C(OC)=C(Nc2cccc(C)c2C)C1=O
inactive: dose: 50.0 mg/kg/injection, schedule: Q01DX001 (ip), vehicle: saline 97 % of control | dose: 100.0 mg/kg/injection, schedule: Q01DX001 (ip), vehicle: saline 103 % of control | [5] 111 % of control | [6] 98 % of control | dose: 200.0 mg/kg/injection, schedule: Q01DX001 (ip), vehicle: saline 115 % of control | [7] 96 % of control | [8] 91 % of control | dose: 400.0 mg/kg/injection, schedule: Q01DX001 (ip), vehicle: saline 103 % of control | dose: 400.0 mg/kg/injection, schedule: Q01DX009 (ip), vehicle: saline 90 % of control | [9] 91 % of control

Clc1ccc2c(c1)/C(=C/c1ccccc1Cl)c1cc(Cl)cc(Cl)c1-2
inactive: dose: 100.0 mg/kg/injection, schedule: Q01DX001 (ip), vehicle: Klucel (hydroxypropylcellulose) (HPC) 90 % of control | [10] 100 % of control | [11] 91 % of control | dose: 200.0 mg/kg/injection, schedule: Q01DX001 (ip), vehicle: Klucel (hydroxypropylcellulose) (HPC) 88 % of control | [12] 88 % of control | [13] 87 % of control | dose: 400.0 mg/kg/injection, schedule: Q01DX001 (ip), vehicle: Klucel (hydroxypropylcellulose) (HPC) 91 % of control | [14] 102 % of control | [15] 87 % of control

CCOc1cc(/C=N/NC(=S)NC23CC4CC(CC(C4)C2)C3)ccc1O
inactive: dose: 75.0 mg/kg/injection, schedule: Q01DX001 (ip), vehicle: acetone 101 % of control | dose: 150.0 mg/kg/injection, schedule: Q01DX001 (ip), vehicle: acetone 92 % of control | dose: 300.0 mg/kg/injection, schedule: Q01DX001 (ip), vehicle: acetone 94 % of control

COc1cc2c(cc1OC)C(CCC(=O)O)=NCC2
inactive: dose: 12.5 mg/kg/injection, schedule: Q04DX002 (ip), vehicle: saline 101 % of control | dose: 25.0 mg/kg/injection, schedule: Q04DX002 (ip), vehicle: saline 104 % of control | dose: 50.0 mg/kg/injection, schedule: Q04DX002 (ip), vehicle: saline 90 % of control

Cc1ccc(NS(=O)(=O)c2ccccc2)cc1
inactive: [16] 106 % of control | dose: 100.0 mg/kg/injection, schedule: Q04DX003 (ip), vehicle: saline with Tween-80 104 % of control | [6] 93 % of control | [17] 101 % of control | dose: 200.0 mg/kg/injection, schedule: Q04DX003 (ip), vehicle: saline with Tween-80 100 % of control | [8] 101 % of control | [18] 103 % of control | dose: 400.0 mg/kg/injection, schedule: Q04DX003 (ip), vehicle: saline with Tween-80 104 % of control | [9] 106 % of control

NC1CCC(c2ccccc2)(c2ccccc2)C1=O (stereo not given)
inactive: dose: 75.0 mg/kg/injection, schedule: Q01DX001 (ip), vehicle: saline 100 % of control | dose: 150.0 mg/kg/injection, schedule: Q01DX001 (ip), vehicle: saline 102 % of control

C/C=C/C=C(\CC)C(=O)OCC
inactive: dose: 50.0 mg/kg/injection, schedule: Q01DX009 (ip), vehicle: saline 115 % of control | [16] 98 % of control | [5] 99 % of control | [17] 90 % of control | [7] 96 % of control | [18] 101 % of control

COc1cc2c(cc1OC)C1CC(=O)C(CC(C)C)CN1CC2 (stereo not given)
inactive: dose: 25.0 mg/kg/injection, schedule: Q01DX009 (ip), vehicle: Klucel (hydroxypropylcellulose) (HPC) 105 % of control | dose: 50.0 mg/kg/injection, schedule: Q01DX009 (ip), vehicle: Klucel (hydroxypropylcellulose) (HPC) 103 % of control | [10] 117 % of control | [16] 102 % of control | [17] 90 % of control | [18] 89 % of control

O=C(O)COc1ccc(F)c(F)c1F
inactive: dose: 100.0 mg/kg/injection, schedule: Q04DX002 (ip), vehicle: other 107 % of control | dose: 200.0 mg/kg/injection, schedule: Q04DX002 (ip), vehicle: other 100 % of control | dose: 400.0 mg/kg/injection, schedule: Q04DX002 (ip), vehicle: other 91 % of control

CCCCCCC(=O)N(CCCC)CCCC
inactive: [2] 109 % of control | dose: 100.0 mg/kg/injection, schedule: Q01DX009 (ip), vehicle: carboxymethylcellulose (CMC) 100 % of control and 91 % of control | dose: 100.0 mg/kg/injection, schedule: Q04DX003 (ip), vehicle: carboxymethylcellulose (CMC) 103 % of control | [3] 95 % of control | [1] 96 % of control and 104 % of control | dose: 200.0 mg/kg/injection, schedule: Q04DX003 (ip), vehicle: carboxymethylcellulose (CMC) 94 % of control | [4] 98 % of control | dose: 400.0 mg/kg/injection, schedule: Q04DX003 (ip), vehicle: carboxymethylcellulose (CMC) 92 % of control

CC1(C)C2CCC(CN=C(N)CSS(=O)(=O)O)C1C2 (stereo not given)
inactive: dose: 3.13 mg/kg/injection, schedule: Q04DX002 (ip), vehicle: saline with Tween-80 91 % of control | dose: 6.25 mg/kg/injection, schedule: Q04DX002 (ip), vehicle: saline with Tween-80 100 % of control and 107 % of control | dose: 12.5 mg/kg/injection, schedule: Q04DX002 (ip), vehicle: saline with Tween-80 104 % of control | dose: 25.0 mg/kg/injection, schedule: Q04DX002 (ip), vehicle: saline with Tween-80 93 % of control

SC1(S)CN2CCC1CC2
inactive: dose: 6.25 mg/kg/injection, schedule: Q01DX009 (ip), vehicle: saline 96 % of control | dose: 6.25 mg/kg/injection, schedule: Q04DX003 (ip), vehicle: saline 105 % of control | dose: 12.5 mg/kg/injection, schedule: Q01DX009 (ip), vehicle: saline 94 % of control | dose: 12.5 mg/kg/injection, schedule: Q04DX003 (ip), vehicle: saline 91 % of control | dose: 25.0 mg/kg/injection, schedule: Q04DX003 (ip), vehicle: saline 93 % of control

CCOc1ccccc1NC(=O)Nc1cccc2ccccc12
inactive: [10] 104 % of control | [11] 90 % of control | [12] 96 % of control | [13] 91 % of control | [14] 102 % of control | [15] 88 % of control

— PubChem BioAssay AID248 (DTP/NCI, 2004)
